# pIC50: −log10 of the molar value.
# Columns and labels:
# [1] = molecular target: HPK1 (Homo sapiens, UniProt Q92918); test: HPK1 Biochemical Assay (ADP-Glo luminescence; low ATP 10 μM or high ATP 200 μM); settings: HPK1 ADP-Glo assay, high ATP (200 μM ATP, 5 nM HPK1); read-out: Biochemical Potency (high ATP)
# [2] = test system: p-SLP-76 (Ser376) in Jurkat cells; test: pSLP76 Cellular Assay (AlphaLISA SureFire Ultra p-SLP-76 (Ser376), anti-CD3 activated Jurkat cells); assay type: cell-based; settings: Homo sapiens; pSLP76 (Ser376) AlphaLISA, anti-CD3 activated Jurkat cells; read-out: Cellular Potency
# In short: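 Read-out is AlphaLISA p-SLP-76 (Ser376) signal at 570 nm in Jurkat lysates, with IC50 fitted by 4-parameter logistic. Cells were starved overnight, exposed 1 h at 37 °C to 22 twofold compound dilutions in HBSS, then activated 45 min with anti-CD3 (0.025 mg/ml stock added).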
# Sequence of HPK1 (Q92918 whole entry, species assumed): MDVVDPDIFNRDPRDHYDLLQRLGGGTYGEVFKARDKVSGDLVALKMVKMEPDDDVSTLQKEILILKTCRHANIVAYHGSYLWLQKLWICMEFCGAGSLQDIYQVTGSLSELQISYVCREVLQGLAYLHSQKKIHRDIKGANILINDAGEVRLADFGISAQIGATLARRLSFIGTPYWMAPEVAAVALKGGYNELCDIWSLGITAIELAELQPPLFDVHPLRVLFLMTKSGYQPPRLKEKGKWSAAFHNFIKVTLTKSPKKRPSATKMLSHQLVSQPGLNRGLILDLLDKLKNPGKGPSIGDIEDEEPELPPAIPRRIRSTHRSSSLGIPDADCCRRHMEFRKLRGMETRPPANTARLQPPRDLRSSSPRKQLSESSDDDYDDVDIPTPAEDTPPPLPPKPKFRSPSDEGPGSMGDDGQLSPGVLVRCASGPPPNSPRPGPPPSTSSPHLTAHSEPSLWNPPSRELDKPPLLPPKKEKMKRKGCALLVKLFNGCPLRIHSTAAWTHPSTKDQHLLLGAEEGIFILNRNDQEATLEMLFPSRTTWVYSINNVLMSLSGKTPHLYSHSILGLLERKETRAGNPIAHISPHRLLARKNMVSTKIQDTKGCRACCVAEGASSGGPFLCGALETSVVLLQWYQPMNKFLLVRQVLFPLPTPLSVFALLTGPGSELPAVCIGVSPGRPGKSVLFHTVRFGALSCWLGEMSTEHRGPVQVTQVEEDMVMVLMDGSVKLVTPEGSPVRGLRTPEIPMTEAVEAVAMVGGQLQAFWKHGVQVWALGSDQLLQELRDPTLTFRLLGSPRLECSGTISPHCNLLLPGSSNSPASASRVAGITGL
Structure (SMILES),pIC50 [1],pIC50 [2]
Cc1cc(Nc2cc3nc(-c4cnn(C5CC5)c4)sc3cn2)nc(N2C[C@@H]3C[C@H]2CN3CC2CC2)n1 [Example 364],> 7.00,> 7.00
Cc1cc(Nc2cc3nc(-c4cnn(C)c4C#N)sc3cn2)nc(N2C[C@@H]3C[C@H]2CN3C)n1 [Example 366],> 7.00,6.00 to 7.00
Cc1cc(Nc2cc3nc(-c4cnn(CS(C)(=O)=O)c4)sc3cn2)nc(N2C[C@@H]3C[C@H]2CN3CCO)n1 [Example 369],> 7.00,6.00 to 7.00
Cc1cc(Nc2cc3nc(-c4cnn(CC5CC5)c4)sc3cn2)nc(N2C[C@@H]3C[C@H]2CN3CCO)n1 [Example 370],> 7.00,> 7.00
Cc1cc(Nc2cc3nc(-c4cnn(C(C)(C)C#N)c4)sc3cn2)nc(N2C[C@@H]3C[C@H]2CN3C)n1 [Example 371],> 7.00,6.00 to 7.00
Cc1cc(Nc2cc3nc(-c4cnn(C)c4C(=O)N(C)C)sc3cn2)nc(N2C[C@@H]3C[C@H]2CN3C)n1 [Example 372],> 7.00,6.00 to 7.00
Cc1cc(Nc2cc3nc(-c4ncc(C)o4)sc3cn2)nc(N2C[C@@H]3C[C@H]2CN3C)n1 [Example 373],> 7.00,6.00 to 7.00
Cc1cc(Nc2cc3nc(-c4cnn(CC(F)F)c4)sc3cn2)nc(N2C[C@@H]3C[C@H]2CN3C)n1 [Example 375],> 7.00,6.00 to 7.00
COCCn1cc(-c2nc3cc(Nc4cc(C)nc(N5C[C@@H]6C[C@H]5CN6C)n4)ncc3s2)cn1 [Example 376],> 7.00,6.00 to 7.00
Cc1cc(Nc2cc3nc(-c4cnn(CC5CC5(F)F)c4)sc3cn2)nc(N2C[C@@H]3C[C@H]2CN3C)n1 (some centres unmarked) [Example 380],> 7.00,5.30 to 6.00
CCN1C[C@@H]2C[C@H]1CN2c1nc(C)cc(Nc2cc3nc(-c4cnn(CC5CC5)c4)sc3cn2)n1 [Example 383],> 7.00,> 7.00

# More lines, now with the values ahead:
pIC50 [1],pIC50 [2],Structure (SMILES)
> 7.00,6.00 to 7.00,Cc1cc(Nc2cc3nc(-c4cnn(CC5CCCCO5)c4)sc3cn2)nc(N2C[C@@H]3C[C@H]2CN3C)n1 (some centres unmarked) [Example 363]
> 7.00,4.60 to 5.30,Cc1cc(Nc2cc3nc(-c4cccc(-c5ccn(C)n5)c4)sc3cn2)nc(N2C[C@@H]3C[C@H]2CN3C)n1 [Example 365]
> 7.00,5.30 to 6.00,Cc1cc(Nc2cc3nc(-c4cccc(S(=O)(=O)N5CCCCC5)c4)sc3cn2)nc(N2C[C@@H]3C[C@H]2CN3C)n1 [Example 367]
> 7.00,6.00 to 7.00,Cc1cc(Nc2cc3nc(-c4cnn(C)c4-c4ccccc4)sc3cn2)nc(N2C[C@@H]3C[C@H]2CN3C)n1 [Example 368]
6.00 to 7.00,4.60 to 5.30,Cc1cc(Nc2cc3nc(-c4ccc5c(c4)S(=O)(=O)N(C)C5)sc3cn2)nc(N2C[C@@H]3C[C@H]2CN3C)n1 [Example 374]
> 7.00,4.60 to 5.30,Cc1cc(Nc2cc3nc(-c4ccn5nccc5c4)sc3cn2)nc(N2C[C@@H]3C[C@H]2CN3C)n1 [Example 377]
> 7.00,6.00 to 7.00,Cc1cc(Nc2cc3nc(-c4cnn(CS(C)(=O)=O)c4)sc3cn2)nc(N2C[C@@H]3C[C@H]2CN3C)n1 [Example 378]
> 7.00,5.30 to 6.00,Cc1cc(Nc2cc3nc(-c4cnn5c4CCCC5)sc3cn2)nc(N2C[C@@H]3C[C@H]2CN3C)n1 [Example 379]
> 7.00,6.00 to 7.00,Cc1cc(Nc2cc3nc(-c4cnn(CCO)c4)sc3cn2)nc(N2C[C@@H]3C[C@H]2CN3C)n1 [Example 381]
> 7.00,6.00 to 7.00,Cc1cc(Nc2cc3nc(-c4cccc(C(=O)N(C)C)c4)sc3cn2)nc(N2C[C@@H]3C[C@H]2CN3CC2CC2)n1 [Example 382]
> 7.00,6.00 to 7.00,Cc1cc(Nc2cc3nc(-c4cncc(C(F)F)c4)sc3cn2)nc(N2C[C@@H]3C[C@H]2CN3C)n1 [Example 384]

# Source: patent US12649751B2 (Arcus Biosciences, Inc., priority 2022, dated 2026)
